Test results taken from patent publication US4559339A, “Indol-3-yl-quinazolino-1,4-benzodiazepin-5,13-diones” (Merck & Co., Inc., priority 1985, dated 1985).
Like-named read-outs stand apart in the source and are kept apart here.

Assays:
CCK receptor (brain) = molecular target: T1, CCK receptor (brain) (Cavia porcellus, UniProt H0VZC5); experiment: CCK receptor binding (brain) method; design: species or system Hartley guinea pig; settings: guinea pig cerebral cortex, 25° C., 2 hours; read-out: ^125 I-CCK Brain IC50
T1 construct: The cerebral cortex is dissected and used as a receptor source; from tissue; host or cells: cerebral cortex of male Hartley guinea pig, membrane homogenate
T1 sequence (H0VZC5 1-426): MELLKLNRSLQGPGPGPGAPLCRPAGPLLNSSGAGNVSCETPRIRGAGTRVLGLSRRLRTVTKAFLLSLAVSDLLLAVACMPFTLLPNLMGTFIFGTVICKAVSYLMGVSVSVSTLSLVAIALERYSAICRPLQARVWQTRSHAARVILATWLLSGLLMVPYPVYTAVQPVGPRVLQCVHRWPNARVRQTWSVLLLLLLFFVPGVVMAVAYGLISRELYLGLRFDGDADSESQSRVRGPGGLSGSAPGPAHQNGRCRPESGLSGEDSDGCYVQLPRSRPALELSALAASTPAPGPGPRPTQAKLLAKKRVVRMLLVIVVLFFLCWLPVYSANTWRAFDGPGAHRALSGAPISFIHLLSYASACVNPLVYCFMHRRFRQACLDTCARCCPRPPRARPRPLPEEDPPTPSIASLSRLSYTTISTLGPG
Description: (§1) Screening of the novel compounds according to the present invention to determine biological activity and obtain an IC50 value for them, in order to identify significant CCK-antagonism, may be accomplished using an ^125 I-CCK receptor binding assay and in vitro isolated tissue preparations. These tests involve the following:
CCK receptor binding (brain) method
CCK-33 is radiolabeled and the binding is performed according to the description for the pancreas method, with modifications according to Saito et al., J. Neurochem., 37, 483-490, 1981.
Male Hartley guinea pigs (300-500 g) are sacrificed by decapitation, and the brains are removed and placed in ice-cold 50 mM Tris HCl (Trizma-7.4) [pH 7.4 at 25° C.]. The cerebral cortex is dissected and used as a receptor source and each gram of fresh guinea pig brain tissue is homogenized in 10 ml of Tris/Trizma buffer with a Brinkman polytron PT-10. The homogenates are centrifuged at 42,000 g for 15 minutes, then the resulting pellets are resuspended in 80 volumes of binding assay buffer (10 mM N-2-hydroxy-ethylpiperazine-N'-2-ethanesulfonic acid (HEPES), 5 mM MgCl2, 1 mM ethylene glycol-bis-(β-amino-ethyl-ether-N,N'-tetraacetic acid (EGTA), 0.4% BSA and 0.25 mg/ml bacitracin, pH 6.5).
The remainder of the binding assay method is as described for the pancreas method, except that the reaction mixtures are incubated at 25° C. for 2 hours before centrifugation.

CCK receptor (pancreas) [1] = molecular target: T2, CCK receptor (pancreas) (Rattus norvegicus, UniProt P30551); experiment: CCK receptor binding (pancreas) method; design: species or system Sprague-Dawley rat; settings: rat pancreas membranes, 37° C., 30 minutes; read-out: I-CCK-8 Pancreas IC50
T2 construct: The whole pancreas of a male Sprague-Dawley rat; from tissue; host or cells: whole pancreas of male Sprague-Dawley rat, washed membrane homogenate
T2 sequence (P30551 1-444): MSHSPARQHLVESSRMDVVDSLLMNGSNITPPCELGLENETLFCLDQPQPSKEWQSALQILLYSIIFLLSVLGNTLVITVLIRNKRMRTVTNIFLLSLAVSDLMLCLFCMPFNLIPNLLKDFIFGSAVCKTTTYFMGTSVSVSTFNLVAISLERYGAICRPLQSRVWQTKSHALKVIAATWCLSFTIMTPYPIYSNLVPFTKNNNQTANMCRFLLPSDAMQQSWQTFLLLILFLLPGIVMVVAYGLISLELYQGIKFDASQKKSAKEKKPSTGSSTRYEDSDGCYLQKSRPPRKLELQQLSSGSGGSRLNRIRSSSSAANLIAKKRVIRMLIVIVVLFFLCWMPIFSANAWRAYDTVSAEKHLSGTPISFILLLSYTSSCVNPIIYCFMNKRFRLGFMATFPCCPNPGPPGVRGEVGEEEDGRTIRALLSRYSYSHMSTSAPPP
Description: as §1
CCK receptor binding (pancreas) method
[…] (J. Biol. Chem., 254, 9349-9351, 1979). Receptor binding is performed according to Innis and Snyder (Proc. Natl. Acad. Sci., 77, 6917-6921, 1980), with the minor modification of adding the additional protease inhibitors, phenyl-methane sulfonyl fluoride and o-phenanthroline, which have no effect on the ^125 I-CCK receptor binding assay.
The whole pancreas of a male Sprague-Dawley rat (200-350 g), which has been sacrificed by decapitation, is dissected free of fat tissue and homogenized in 20 volumes of ice-cold 50 mM Tris HCl (pH 7.7 at 25° C.) with a Brinkman Polytron PT-10. The homogenates are centrifuged at 48,000 g for 10 minutes, then the resulting pellets are resuspended in Tris Buffer, centrifuged as above, and resuspended in 200 volumes of binding assay buffer (50 mM Tris HCl, pH 7.7 at 25° C., 5 mM dithiothreitol, 0.1 mM bacitracin, 1.2 mM phenylmethane sulfonyl fluoride and 0.5 mM o-phenanthroline).
For the binding assay, 25 μl of buffer (for total binding), or unlabeled CCK-8 sulfate sufficient to give a final concentration of 1 μM of CCK-8 (for nonspecific binding), or the compounds of the formula of the compounds according to the instant invention ([…]), are added to 450 μl of the membrane suspensions in microfuge tubes. All assays are run in duplicate or triplicate, and the reaction mixtures are incubated at 37° C. for 30 minutes and centrifuged in a Beckman Microfuge (4 minutes) immediately after adding 1 ml of ice-cold incubation buffer. The supernatant is aspirated and discarded, and the pellets are counted with a Beckman Gamma 5000.

[2] = test system: cholecystokinins in the gut; settings: prior compound; cited from earlier work
CCK receptor (pancreas) [3] = molecular target: T2, CCK receptor (pancreas); settings: prior compound, U.S. Pat. No. 4,530,790; cited from earlier work
CCK receptor = settings: structure-function studies; cited from earlier work

| IC50 (CCK receptor (brain)) [µM] | IC50 (CCK receptor (pancreas) [1]) [µM] | SMILES | selectivity in inhibiting the function of cholecystokinins [2] | IC50 (CCK receptor (pancreas) [3]) [µM] | CCK-receptor antagonist potency within derivatives of cyclic nucleotides (CCK receptor) |
| --- | --- | --- | --- | --- | --- |
| > 100 | > 100 | CC(C)C[C@@H](NC(=O)OC(C)(C)C)C(=O)N1CC(C[C@@H]2NC(=O)c3ccccc3-n3c2nc2ccccc2c3=O)c2ccccc21 (single isomer, unassigned; isomer 2) [Example 7] | – | – | – |
| > 100 | 3.4 | CC(C)C[C@H](NC(=O)OC(C)(C)C)C(=O)N1CC(C[C@@H]2NC(=O)c3ccccc3-n3c2nc2ccccc2c3=O)c2ccccc21 (stereo partly drawn) [Example 4, 7-[(1-[2(S)-((1,1-dimethylethoxy)carbonyl)amino-4-methylpentanoyl]-2,3-dihydro-1H-indol-3-yl)methyl]quinazolino(3,2-A)-1,4-benzodiazepin-5,13-(6H,7H)-dione hemihydrate] | – | – | – |
| > 100 | 19.2 | CC(C)C[C@H](NC(=O)OC(C)(C)C)C(=O)N1CC(C[C@@H]2NC(=O)c3ccccc3N3C(=O)c4ccccc4NC23)c2ccccc21 (stereo partly drawn) [Example 5, 7-[(1-[2(S)-((1,1-dimethylethoxy)carbonyl)amino-4-methylpentanoyl]-2,3-dihydro-1H-indol-3-yl)methyl]quinazolino(3,2-A)-1,4-benzodiazepin-5,13-(5H,7H)-dione hydrate] | – | – | – |
| > 100 | 27 | O=C1N[C@@H](CC2CNc3ccccc32)c2nc3ccccc3c(=O)n2-c2ccccc21 (some centres unmarked) [Example 2, 7-[(2,3-dihydro-1H-indol-3-yl)methyl]-quinazolino(3,2-A)-1,4-benzodiazepin-5,13-(6H,7H)-dione hemihydrate] | – | – | – |
| 100 | 34 | CC(C)C[C@@H](NC(=O)OC(C)(C)C)C(=O)N1CC(C[C@@H]2NC(=O)c3ccccc3N3C(=O)c4ccccc4NC23)c2ccccc21 (single isomer, unassigned; isomer 2) [Example 9] | – | – | – |

Further lines, the compound ahead of its results:

| SMILES | IC50 (CCK receptor (brain)) [µM] | IC50 (CCK receptor (pancreas) [1]) [µM] | selectivity in inhibiting the function of cholecystokinins [2] | IC50 (CCK receptor (pancreas) [3]) [µM] | CCK-receptor antagonist potency within derivatives of cyclic nucleotides (CCK receptor) |
| --- | --- | --- | --- | --- | --- |
| CC(C)C[C@H](NC(=O)OC(C)(C)C)C(=O)n1cc(C[C@@H]2NC(=O)c3ccccc3-n3c2nc2ccccc2c3=O)c2ccccc21 [Example 3, 7-[(1-[2(S)-((1,1-dimethylethoxy)-carbonyl)amino-4-methylpentanoyl]-1H-indol-3-yl)methyl]quinazolino(3,2-A)-1,4-benzodiazepin-5,13-(6H,7H)-dione sesquihydrate] | > 100 | > 100 | – | – | – |
| CC(C)C[C@@H](NC(=O)OC(C)(C)C)C(=O)N1CC(C[C@@H]2NC(=O)c3ccccc3N3C(=O)c4ccccc4NC23)c2ccccc21 (single isomer, unassigned; isomer 1) [Example 8] | 15 | 49 | – | – | – |
| O=C1N[C@@H](Cc2c[nH]c3ccccc23)C2Nc3ccccc3C(=O)N2c2ccccc21 (some centres unmarked) [Example 1, 7,7A-dihydro-7-(1H-indol-3-yl)methylquinazolino(3,2-B)-1,4-benzodiazepin-5,13-(6H,9H)-dione monohydrate] | > 100 | 12 | – | – | – |
| CC(C)C[C@@H](NC(=O)OC(C)(C)C)C(=O)N1CC(C[C@@H]2NC(=O)c3ccccc3-n3c2nc2ccccc2c3=O)c2ccccc21 (single isomer, unassigned; isomer 1) [Example 6] | > 100 | 16.5 | – | – | – |
| O=C1N[C@@H](Cc2c[nH]c3ccccc23)c2nc3ccccc3c(=O)n2-c2ccccc21 [7β-[(1H-indol-3-yl)methyl]quinazolino(3,2-A) (1,4)benzodiazepin-5,13(6H,7H)dione] | – | – | selective in inhibiting the function of cholecystokinins in the gut | 26 | – |
| CC(C)C[C@H](NC(=O)OCc1ccccc1)C(=O)n1cc(C[C@@H]2NC(=O)c3ccccc3-n3c2nc2ccccc2c3=O)c2ccccc21 [Example 10, 7-[(1-[2(S)-phenylmethoxycarbonylamino-4-methylpentanoyl]-1H-indol-3-yl)methyl]quinazolino-(3,2-B)-1,4-benzodiazepin-5,13-(6H,7H)-dione] | > 100 | > 100 | – | – | – |
| CCCC(=O)Nc1nc2c(ncn2[C@@H]2O[C@@H]3COP(=O)(O)O[C@H]3[C@H]2OC(=O)CCC)c(=O)[nH]1 [dibutyryl cyclic GMP] | – | – | – | – | most potent |
